Data taken from patent US8575193B2, “N-substituted tetrahydroisoquinoline/isoindoline hydroxamic acid compounds” (4SC AG, priority 2008, dated 2013).
Structures can show the parent of a compound that is named as a salt.

Assay: Cellular cytotoxicity assay (Alamar Blue/Resazurin), A549
Type: cell-based
Conditions: human, A549 cells; A549, 72 hours incubation, Resazurin; read-out: A549 Cytotoxicity [pIC50] (converted)
Description: The anti-proliferative activity of the compounds as described herein, is evaluated with various solid and hematological cancer cell lines using the Alamar Blue (Resazurin) cell viability assay (O'Brien et al, Eur J Biochem 267, 5421-5426, 2000). Resazurin is reduced to the fluorescent resorufin by cellular dehydrogenase activity, correlating with viable, proliferating cells. Test compounds are dissolved as 20 mM solutions in dimethylsulfoxide (DMSO) and subsequently diluted in semi-logarithmic steps. The cancer cell lines are seeded into 96 well flat bottom plates at respective cell densities in a volume of 200 μl per well to allow continuous proliferation during the experiment. 24 hours after seeding 1 μl each of the compound dilutions is added into each well of the 96 well plate. Wells containing untreated control cells are filled with 200 μl DMEM medium containing 0.5% v:v DMSO. The cells are then incubated with the substances for 72 hours at 37° C. in a humidified atmosphere containing 5% carbon dioxide. To determine the viability of the cells, 20 μl of a Resazurin solution (Sigma; 90 mg/l) are added. After 4 hours incubation at 37° C. the fluorescence is measured at an extinction of 544 nm and an emission of 590 nm. For the calculation of the cell viability the emission value from untreated cells is set as 100% viability and the emission rates of treated cells are set in relation to the values of untreated cells. Viabilities are expressed as % values. The corresponding pIC50 values of the compounds for cytotoxic activity are determined from the concentration-effect curves by means of non-linear regression.

Q: With `COc1ccc2[nH]c(C(=O)N3CCc4ccc(C(=O)NO)cc4C3)cc2c1` [Example 24, N-Hydroxy-2-[(5-methoxy-1H-indol-2-yl)carbonyl]-1,2,3,4-tetrahydroisoquinoline-7-carboxamide] as the molecule, how does the IC50 at 72 h read?
A: 1 to 100 µM

Q: With `O=C(NO)c1ccc2c(c1)CN(C(=O)C1CCOC1)CC2` (stereo not shown) [Example 20, N-Hydroxy-2-(tetrahydrofuran-3-ylcarbonyl)-1,2,3,4-tetrahydroisoquinoline-7-carboxamide] as the molecule, how does the IC50 at 72 h read?
A: > 100 µM

Q: With `O=C(NO)c1ccc2c(c1)CCN(C(=O)C1CCC1)C2` [Example 3, 2-(Cyclobutylcarbonyl)-N-hydroxy-1,2,3,4-tetrahydroisoquinoline-6-carboxamide] as the molecule, how does the IC50 at 72 h read?
A: > 100 µM

Q: Which IC50 at 72 h does the source give for `Cc1nccn1CC(=O)N1CCc2cc(C(=O)NO)ccc2C1` [Example 10, N-Hydroxy-2-[(2-methyl-1H-imidazol-1-yl)acetyl]-1,2,3,4-tetrahydroisoquinoline-6-carboxamide hydrochloride] here?
A: > 100 µM

Q: Which IC50 at 72 h does the source give for `O=C(NO)c1ccc2c(c1)CN(C(=O)Cc1c[nH]c3ccccc13)CC2` [Example 18, N-Hydroxy-2-(1H-indol-3-ylacetyl)-1,2,3,4-tetrahydroisoquinoline-7-carboxamide] here?
A: 1 to 100 µM

Q: For `COCCCOC(=O)N1CCc2cc(C(=O)NO)ccc2C1` [Example 6, 3-Methoxypropyl-6-(hydroxycarbamoyl)-3,4-dihydroisoquinoline-2(1H)-carboxylate], which IC50 at 72 h is on record?
A: > 100 µM

Q: For `COCCCNC(=O)N1CCc2cc(C(=O)NO)ccc2C1` [Example 5, N6-Hydroxy-N2-(3-methoxypropyl)-3,4-dihydroisoquinoline-2,6(1H)-dicarboxamide], which IC50 at 72 h is on record?
A: > 100 µM

Q: For `O=C(NO)c1ccc2c(c1)CCN(C(=O)C1CCOC1)C2` (stereo not shown) [Example 13, N-Hydroxy-2-(tetrahydrofuran-3-ylcarbonyl)-1,2,3,4-tetrahydroisoquinoline-6-carboxamide], which IC50 at 72 h is on record?
A: > 100 µM

Q: Which IC50 at 72 h does the source give for `O=C(NO)c1ccc2c(c1)CN(C(=O)Cc1cccnc1)CC2` [Example 19, N-Hydroxy-2-(pyridin-3-ylacetyl)-1,2,3,4-tetrahydroisoquinoline-7-carboxamide hydrochloride] here?
A: > 100 µM

Q: For `O=C(NO)c1ccc2c(c1)CN(C(=O)NCCc1ccccc1)CC2` [Example 22, N7-Hydroxy-N2-(2-phenylethyl)-3,4-dihydroisoquinoline-2,7(1H)-dicarboxamide], which IC50 at 72 h is on record?
A: 1 to 100 µM

Q: With `CN(C)CCCC(=O)N1CCc2cc(C(=O)NO)ccc2C1` [Example 9, 2-[4-(Dimethylamino)butanoyl]-N-hydroxy-1,2,3,4-tetrahydroisoquinoline-6-carboxamide hydrochloride] as the molecule, how does the IC50 at 72 h read?
A: 1 to 100 µM

Q: For `O=C(NO)c1ccc2c(c1)CCN(C(=O)CCc1cccnc1)C2` [Example 7, N-Hydroxy-2-(3-pyridin-3-ylpropanoyl)-1,2,3,4-tetrahydroisoquinoline-6-carboxamide hydrochloride], which IC50 at 72 h is on record?
A: > 100 µM

Q: Which IC50 at 72 h does the source give for `CC(=O)N1CCc2cc(C(=O)NO)ccc2C1` [Example 12, 2-Acetyl-N-hydroxy-1,2,3,4-tetrahydroisoquinoline-6-carboxamide] here?
A: > 100 µM

Q: For `COc1ccc2[nH]c(C(=O)N3CCc4cc(C(=O)NO)ccc4C3)cc2c1` [Example 15, N-Hydroxy-2-[(5-methoxy-1H-indol-2-yl)carbonyl]-1,2,3,4-tetrahydroisoquinoline-6-carboxamide], which IC50 at 72 h is on record?
A: 1 to 100 µM

Q: Which IC50 at 72 h does the source give for `O=C(NO)c1ccc2c(c1)CN(C(=O)Cc1ccccn1)CC2` [Example 21, N-Hydroxy-2-(pyridin-2-ylacetyl)-1,2,3,4-tetrahydroisoquinoline-7-carboxamide hydrochloride] here?
A: > 100 µM

Q: Which IC50 at 72 h does the source give for `O=C(NO)c1ccc2c(c1)CCN(C(=O)Cc1c[nH]c3ccccc13)C2` [Example 1, N-Hydroxy-2-(indol-3-ylacetyl)-1,2,3,4-tetrahydroisoquinoline-6-carboxamide hydrochloride] here?
A: 1 to 100 µM

Q: Which IC50 at 72 h does the source give for `O=C(NO)c1ccc2c(c1)CCN(C(=O)Cc1cccnc1)C2` [Example 8, N-Hydroxy-2-(pyridin-3-ylacetyl)-1,2,3,4-tetrahydroisoquinoline-6-carboxamide hydrochloride] here?
A: > 100 µM

Q: With `Cc1ccc(C(=O)N2CCc3ccc(C(=O)NO)cc3C2)cc1` [Example 23, N-Hydroxy-2-(4-methylbenzoyl)-1,2,3,4-tetrahydroisoquinoline-7-carboxamide] as the molecule, how does the IC50 at 72 h read?
A: 1 to 100 µM

Q: For `COCCOCC(=O)N1CCc2cc(C(=O)NO)ccc2C1` [Example 11, N-Hydroxy-2-[(2-methoxyethoxy)acetyl]-1,2,3,4-tetrahydroisoquinoline-6-carboxamide], which IC50 at 72 h is on record?
A: > 100 µM

Q: With `CNC(=O)N1CCc2cc(C(=O)NO)ccc2C1` [Example 4, N6-Hydroxy-N2-methyl-3,4-dihydroisoquinoline-2,6(1H)-dicarboxamide] as the molecule, how does the IC50 at 72 h read?
A: > 100 µM

Q: With `O=C(NO)c1ccc2c(c1)CCN(C(=O)C1CC1)C2` [Example 16, N-Hydroxy-2-(cyclopropylcarbonyl)-1,2,3,4-tetrahydroisoquinoline-6-carboxamide] as the molecule, how does the IC50 at 72 h read?
A: > 100 µM

Q: Which IC50 at 72 h does the source give for `CC#CC(=O)N1CCc2ccc(C(=O)NO)cc2C1` [Example 17, 2-But-2-ynoyl-N-hydroxy-1,2,3,4-tetrahydroisoquinoline-7-carboxamide] here?
A: > 100 µM
